Measurements from PMC4712254 (Clinical Pharmacokinetics, 2015).
Marks after values point to notes of the source that are not given here.

Tests used:
[1] = both CYP2B6 probe drugs; cited from earlier work
[2] = tested on: CYP2B6; details: cited from earlier work
[3] = tested on: CYP2C19; details: cited from earlier work
[4] = Plasma pharmacokinetics of probe drugs and metabolites in healthy male subjects
[5] = tested on: CYP1A2; details: cited from earlier work
[6] = tested on: CYP2D6; test: Basel cocktail phenotyping of CYP2D6; type: in vivo, human; details: plasma, geometric mean (90 % CI)
[7] = tested on: CYP2C19; test: Basel cocktail phenotyping of CYP2C19; type: in vivo, human; details: plasma, geometric mean (90 % CI)
[8] = tested on: CYP2B6; details: cited from earlier work; remark: listed apart in the source
[9] = tested on: CYP2B6; test: Basel cocktail phenotyping of CYP2B6; type: in vivo, human; details: plasma, geometric mean (90 % CI)
[10] = tested on: CYP3A4; test: Basel cocktail phenotyping of CYP3A4; type: in vivo, human; details: plasma, geometric mean (90 % CI)
[11] = tested on: p-glycoprotein (pgp); details: cited from earlier work
[12] = tested on: CYP2C9; test: Basel cocktail phenotyping of CYP2C9; type: in vivo, human; details: for [los]/[E3174]: plasma, geometric mean (90 % CI); for metabolic ratios at 6 h: the other subjects
[13] = 2 h, Cocktail + inducer (rifampicin)
[14] = 4 h, Cocktail + inducer (rifampicin)
[15] = 6 h, Cocktail + inducer (rifampicin)
[16] = 8 h, Cocktail + inducer (rifampicin)

Question: Which half-life [1] does the source give for `CC(NC(C)(C)C)C(=O)c1cccc(Cl)c1` (stereo not shown) [bupropion] here?
Answer: Its half-life is 50 to 70 h.

Question: Which results are given for `CO[C@H]1/C=C/O[C@@]2(C)Oc3c(C)c(O)c4c(O)c(c(/C=N/N5CCN(C)CC5)c(O)c4c3C2=O)NC(=O)/C(C)=C\C=C\[C@H](C)[C@H](O)[C@@H](C)[C@@H](O)[C@@H](C)[C@H](OC(C)=O)[C@@H]1C` [rifampicin]?
Answer: in vivo inducer class, CYP2B6 [2]: moderate inducer (50–80 % decrease in AUC); in vivo inducer class, 2C19 [3]: moderate inducer (50–80 % decrease in AUC); concentrations in one subject compared with the other subjects ([4]; subject excluded from induction data, higher): approximately 100 fold; in vivo inducer class, CYP1A2 [5]: weak inducer

Question: For `COCCc1ccc(OCC(O)CNC(C)C)cc1` (stereo not shown) [metoprolol], which “[met]/[OH-met]” value [6, 13] is on record?
Answer: Its value is 1.83 (1.60–2.18) nt^d.

Question: And the “[met]/[OH-met]” value ([6]; 2 h, Cocktail alone (baseline))?
Answer: Its value is 1.93 (1.56–2.47)^e.

Question: And the “[met]/[OH-met]” value [6, 14]?
Answer: The value was 2.02 (1.84–2.31) ns^a.

Question: And the “[met]/[OH-met]” value ([6]; 4 h, Cocktail + inhibitors)?
Answer: Its value is 6.60 (5.90–7.85)***.

Question: And the “[met]/[OH-met]” value ([6]; 4 h, Cocktail alone (baseline))?
Answer: Its value is 2.20 (2.00–2.54).

Question: What about the “[met]/[OH-met]” value [6, 15] of the same compound?
Answer: The value was 1.88 (1.69–2.20)*^a.

Question: What about the “[met]/[OH-met]” value ([6]; 6 h, Cocktail + inhibitors) of the same compound?
Answer: Its value is 8.99 (8.33–10.01)***.

Question: And the “[met]/[OH-met]” value ([6]; 6 h, Cocktail alone (baseline))?
Answer: Its value is 2.36 (2.16–2.69)^a.

Question: And the “[met]/[OH-met]” value [6, 16]?
Answer: Its value is 1.67 (1.51–1.93) ns^b.

Question: And the “[met]/[OH-met]” value ([6]; 8 h, Cocktail + inhibitors)?
Answer: Its value is 9.90(9.06–11.39)***.

Question: What about the “[met]/[OH-met]” value ([6]; 8 h, Cocktail alone (baseline)) of the same compound?
Answer: The value was 2.11 (1.91–2.44).

Question: With `O=C1Nc2c(O)cc(Cl)cc2[C@@](C#CC2(O)CC2)(C(F)(F)F)O1` [8,14-dihydroxy-efavirenz] as the compound, how does the “plasma concentrations after deglucuronidation” value ([4]; after deglucuronidation) read?
Answer: Its value is “lower than 6 ng/mL”.

Question: And the plasma concentrations ([4]; without deglucuronidation)?
Answer: Its plasma concentrations is “below the limit of quantification”.

Question: What does the source list for `COc1ccc2[nH]c([S+]([O-])Cc3ncc(C)c(OC)c3C)nc2c1` (stereo not shown) [omeprazole]?
Answer: [ome]/[OH-ome] [7, 13]: 0.25 (0.22–0.35)**^a; [ome]/[OH-ome] ([7]; 2 h, Cocktail + inhibitors): 25.8 (22.7–33.2)***; [ome]/[OH-ome] ([7]; 2 h, Cocktail alone (baseline)): 1.08 (0.90–1.46); [ome]/[OH-ome] [7, 14]: 0.18 (0.15–0.24)***^a; [ome]/[OH-ome] ([7]; 4 h, Cocktail + inhibitors): 18.1 (16.0–22.5)***; [ome]/[OH-ome] ([7]; 4 h, Cocktail alone (baseline)): 0.49 (0.38–0.86); [ome]/[OH-ome] ([7]; 6 h, Cocktail + inhibitors): 14.6 (12.5–18.8)nt^a; [ome]/[OH-ome] ([7]; 6 h, Cocktail alone (baseline)): 0.28 (0.18–0.55)^b

Question: With `Fc1ccc([C@@H]2CCNC[C@H]2COc2ccc3c(c2)OCO3)cc1` [paroxetine] as the compound, how does the “CYP2B6 inhibition in vitro” value [8] read?
Answer: The value was “CYP2B6 inhibitor in vitro”.

Question: For `O=C1Nc2ccc(Cl)cc2[C@@](C#CC2CC2)(C(F)(F)F)O1` [efavirenz], which “[efa]/[OH-efa]” value [9, 14] is on record?
Answer: The value was 19.3 (17.9–21.3)***^a.

Question: What about the “[efa]/[OH-efa]” value ([9]; 4 h, Cocktail + inhibitors) of the same compound?
Answer: The value was 84.1 (71.9–115.0)***.

Question: And the “[efa]/[OH-efa]” value ([9]; 4 h, Cocktail alone (baseline))?
Answer: Its value is 38.7 (34.8–48.5).

Question: What about the “[efa]/[OH-efa]” value [9, 15] of the same compound?
Answer: Its value is 23.1 (21.3–25.7)***^a.

Question: And the “[efa]/[OH-efa]” value ([9]; 6 h, Cocktail + inhibitors)?
Answer: Its value is 77.6 (69.3–94.2)***^a.

Question: What about the “[efa]/[OH-efa]” value ([9]; 6 h, Cocktail alone (baseline)) of the same compound?
Answer: The value was 43.7 (39.5–51.3).

Question: And the “[efa]/[OH-efa]” value [9, 16]?
Answer: The value was 27.7 (26.0–30.8)***^a.

Question: What about the “[efa]/[OH-efa]” value ([9]; 8 h, Cocktail + inhibitors) of the same compound?
Answer: The value was 88.7 (79.7–108.0)***.

Question: What about the “[efa]/[OH-efa]” value ([9]; 8 h, Cocktail alone (baseline)) of the same compound?
Answer: The value was 53.2 (47.8–62.6).

Question: For `Cc1ncc2n1-c1ccc(Cl)cc1C(c1ccccc1F)=NC2` [midazolam], which “[mid]/[OH-mid]” value [10, 13] is on record?
Answer: Its value is 1.73 (1.54–2.11) ns^a.

Question: And the “[mid]/[OH-mid]” value ([10]; 2 h, Cocktail + inhibitors)?
Answer: Its value is 3.46 (3.10–4.29)***.

Question: And the “[mid]/[OH-mid]” value ([10]; 2 h, Cocktail alone (baseline))?
Answer: The value was 1.31 (1.16–1.77).

Question: And the “[mid]/[OH-mid]” value ([10]; 4 h, Cocktail alone (baseline))?
Answer: The value was 1.51 (1.33–1.97).

Question: Which “p-glycoprotein (pgp) substrate” value [11] does the source give for `CCCCc1nc(Cl)c(CO)n1Cc1ccc(-c2ccccc2-c2nn[nH]n2)cc1` [losartan] here?
Answer: Its value is “transported by p-glycoprotein”.

Question: What about the “[los]/[E3174]” value [12, 13] of the same compound?
Answer: Its value is 0.44 (0.37–0.96)**^b.

Question: And the “[los]/[E3174]” value ([12]; 2 h, Cocktail + inhibitors)?
Answer: The value was 3.39 (2.66–4.62)ns^f.

Question: What about the “[los]/[E3174]” value ([12]; 2 h, Cocktail alone (baseline)) of the same compound?
Answer: Its value is 1.18 (1.17–2.99).

Question: What about the “[los]/[E3174]” value [12, 14] of the same compound?
Answer: The value was 0.08 (0.06–0.16)**^a.

Question: What about the “[los]/[E3174]” value ([12]; 4 h, Cocktail + inhibitors) of the same compound?
Answer: The value was 1.17 (1.03–2.09)***.

Question: And the “[los]/[E3174]” value ([12]; 4 h, Cocktail alone (baseline))?
Answer: Its value is 0.17 (0.14–0.37).

Question: What about the “[los]/[E3174]” value [12, 15] of the same compound?
Answer: The value was 0.06 (0.04–0.12)***^c.

Question: And the “[los]/[E3174]” value ([12]; 6 h, Cocktail + inhibitors)?
Answer: Its value is 0.55 (0.47–1.01)***^a.

Question: And the “[los]/[E3174]” value ([12]; 6 h, Cocktail alone (baseline))?
Answer: The value was 0.10 (0.08–0.19).

Question: And the “[los]/[E3174]” value [12, 16]?
Answer: The value was 0.05 (0.04–0.07) ns^b.

Question: And the “[los]/[E3174]” value ([12]; 8 h, Cocktail + inhibitors)?
Answer: The value was 0.24 (0.20–0.42)***.

Question: And the “[los]/[E3174]” value ([12]; 8 h, Cocktail alone (baseline))?
Answer: The value was 0.05 (0.04–0.08).

Question: What about the “metabolic ratios at 6 h” value ([12]; baseline) of the same compound?
Answer: Its value is 0.04–0.11.

Question: What about the “metabolic ratios at 6 h” value ([12]; inhibition) of the same compound?
Answer: The value was 0.20–0.53.
